Measured values as given in patent publication US9796753B2, “N-substituted indenoisoquinolines and syntheses thereof” (Purdue Research Foundation, priority 2005, dated 2017).
Where two headings read alike, the source gives them in different places.

What was measured:
[1] = tested on: prostate DU-145; assay: COMPARE screening (NCI human cancer cell line screen), cytotoxicity GI50; format: cell-based
Summary of the method: (§1)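 Step one: incubate NCI60 cell lines 48 h with test agent (100–0.01 μM, tenfold steps). Step two: SRB dye treatment and OD reading. Step three: percentage growth relative to control plotted against log10 concentration.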

[2] = tested on: ovarian OVCAR-3; assay: as above; format: cell-based
Summary of the method: as §1

[3] = tested on: colon HCT-116; assay: as above; format: cell-based
Summary of the method: as §1

[4] = tested on: melanoma UACC-62; assay: as above; format: cell-based
Summary of the method: as §1

[5] = tested on: CNS SF-539; assay: as above; format: cell-based
Summary of the method: as §1

[6] = tested on: lung HOP-62; assay: as above; format: cell-based
Summary of the method: as §1

[7] = tested on: renal SN12C; assay: as above; format: cell-based
Summary of the method: as §1

[8] = tested on: breast MDA-MB-435; assay: as above; format: cell-based
Procedure: COMPARE screening. The compounds described herein were examined for antiproliferative activity against the human cancer cell lines in the National Cancer Institute screen (COMPARE screening), in which the activity of each compound was evaluated with approximately 55 different cancer cell lines of diverse tumor origins. […] Therefore, the MGM value represents an overall assessment of toxicity of the compound across numerous cell lines.

[9] = tested on: all human cancer cell lines successfully tested; assay: NCI screen mean graph midpoint (MGM) for growth inhibition; format: cell-based
Summary of the method: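 NCI60 panel cells exposed to compound at 100, 10, 1, 0.1 and 0.01 μM for 48 h, then sulforhodamine B staining. Percentage growth versus control plotted against log concentration; MGM is the midpoint across all lines tested.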

[10] = tested on: panel of twelve human tumor cell lines; assay: Hollow fiber assay; format: in vivo; set-up: key to IP Score / SC score / Total score: 2 points each time viable cell mass falls ≥50% vs vehicle controls; key to Cell kill: A net cell kill at one or more implant sites is indicated with a Y; settings: for IP Score: intraperitoneal fibers in athymic nude mice, score 2 per 50% or greater reduction in viable cell mass; for IP Score / SC score: compounds IP once daily, four doses, two dose levels; for SC score: subcutaneous fibers in athymic nude mice; for Total score: sum of IP and SC scores; for Cell kill: net cell kill at one or more implant sites
Procedure: Hollow Fiber Activity. […] The effects of the compounds on the reduction of viable cancer cell mass compared to those of controls were determined. Each compound was tested in the hollow fiber assay against a panel of twelve human tumor cell lines as described previously; see, Hollingshead, M.; Plowman, J.; Alley, M.; Mayo, J.; Sausville, E., The Hollow Fiber Assay. Contrib. Oncol. 1999, 54, 109-120; and Plowman, J.; Camalier, R.; Alley, M.; Sausville, E.; Schepartz, S. Contrib. Oncol. […] The compounds were solubilized in 10% DMSO in saline/Tween-80® and administered intraperitoneally once daily for a total of four doses at each of two dose levels. The two doses were selected based on single dose toxicity studies for each derivative. A score of 2 was assigned each time the compound produced a 50% or greater reduction in viable cell mass compared to vehicle-treated controls. The score for each compound was summed for the intraperitoneal fibers and the subcutaneous fibers to provide the total score for each derivative as shown in Table 3 and Table 4. For comparative purposes, the score for the clinically used anticancer drug paclitaxel is provided.

[11] = target: recombinant TDP1 (Homo sapiens, UniProt Q9NUW8); assay: Gel-based assay measuring the inhibition of recombinant TDP1; format: biochemical; settings: Table 7; scores correspond to IC50 ranges; read-out: TDP1 inhibition
Sequence of recombinant TDP1 (Q9NUW8 whole entry): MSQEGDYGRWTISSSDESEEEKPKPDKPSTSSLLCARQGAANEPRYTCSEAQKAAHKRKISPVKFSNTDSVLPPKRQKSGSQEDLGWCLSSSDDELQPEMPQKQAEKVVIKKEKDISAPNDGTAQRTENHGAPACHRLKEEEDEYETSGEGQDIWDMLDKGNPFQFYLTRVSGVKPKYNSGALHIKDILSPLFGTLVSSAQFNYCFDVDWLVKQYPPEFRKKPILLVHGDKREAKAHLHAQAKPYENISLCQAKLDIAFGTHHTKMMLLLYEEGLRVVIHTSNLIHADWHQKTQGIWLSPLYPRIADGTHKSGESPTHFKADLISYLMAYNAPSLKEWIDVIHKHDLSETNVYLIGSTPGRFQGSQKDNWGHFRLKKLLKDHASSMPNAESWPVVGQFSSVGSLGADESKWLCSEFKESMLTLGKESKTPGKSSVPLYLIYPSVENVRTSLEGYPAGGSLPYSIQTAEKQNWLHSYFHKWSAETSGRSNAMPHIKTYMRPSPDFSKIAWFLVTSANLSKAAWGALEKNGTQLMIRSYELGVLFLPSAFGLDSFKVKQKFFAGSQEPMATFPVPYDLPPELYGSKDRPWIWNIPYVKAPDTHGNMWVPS
Procedure: A 5′-[^32P]-labeled single-stranded DNA oligonucleotide containing a 3′-phosphotyrosine (N14Y) was generated as described by Dexheimer et al. (J. Med. Chem. 2009, 52, 7122-7131). The DNA substrate was then incubated with 5 μM recombinant TDP1 in the absence or presence of inhibitor for 15 min at room temperature in a buffer containing 50 mM Tris HCl, pH 7.5, 80 mM KCl, 2 mM EDTA, 1 mM DTT, 40 μg/ml BSA and 0.01% Tween-20. Reactions were terminated by the addition of 1 volume of gel loading buffer [99.5% (v/v) formamide, 5 mM EDTA, 0.01% (w/v) xylene cyanol, and 0.01% (w/v) bromophenol blue]. Samples were subjected to a 16% denaturing PAGE and gels were exposed after drying to a PhosphorImager screen (GE Healthcare). Gel images were scanned using a Typhoon 8600 (GE Healthcare) and densitometric analyses were performed using the ImageQuant software (GE Healthcare).
The TDP1 inhibitory activities of the O-2-substituted indenoisoquinolines were measured by determining their abilities to inhibit the hydrolysis of the phosphodiester linkage between tyrosine and the 3′-end of a DNA oligonucleotide substrate and thus prevent the generation of an oligonucleotide with a free 3′-phosphate (N14P, Scheme 13). Therefore, the disappearance of the gel band for N14P indicates TDP1 inhibition.
Tyrosyl-DNA phosphodiesterase 1 (TDP1) is a DNA repair enzyme that repairs cytotoxic DNA damage induced by Top1 inhibitors.

[12] = Table 1, concentration corresponding to 50% growth inhibition, read-out: cytotoxicity (GI50) ovarian OVCAR-3
[13] = Table 1, average GI50 of all cell lines tested (approximately 55), test range 10^−8 to 10^−4 molar
[14] = ovarian OVCAR-3, concentration corresponding to 50% growth inhibition, read-out: cytotoxicity (GI50 in μM) ovarian OVCAR-3
[15] = colon HCT-116, concentration corresponding to 50% growth inhibition, read-out: cytotoxicity (GI50 in μM) colon HCT-116
[16] = melanoma UACC-62, concentration corresponding to 50% growth inhibition, read-out: cytotoxicity (GI50 in μM) melanoma UACC-62
[17] = CNS SF-539, concentration corresponding to 50% growth inhibition, read-out: cytotoxicity (GI50 in μM) CNS SF-539
[18] = lung HOP-62, concentration corresponding to 50% growth inhibition, read-out: cytotoxicity (GI50 in μM) lung HOP-62
[19] = renal SN12C, concentration corresponding to 50% growth inhibition, read-out: cytotoxicity (GI50 in μM) renal SN12C
[20] = breast MDA-MB-435, concentration corresponding to 50% growth inhibition, read-out: cytotoxicity (GI50 in μM) breast MDA-MB-435
[21] = all human cancer cell lines successfully tested

SMILES | GI50 [1] [µM] | GI50 [3] [µM] | GI50 [4] [µM] | GI50 [5] [µM] | GI50 [6] [µM] | GI50 [7] [µM] | GI50 [8] [µM] | MGM (mean graph midpoint for growth inhibition) [9, 13] [µM] | IP Score ([10]; Table 3) | SC score ([10]; Table 3) | Total score ([10]; Table 3) | MGM (mean graph midpoint for growth inhibition) [9, 21] [µM] | IP Score ([10]; Table 4) | SC score ([10]; Table 4) | Total score ([10]; Table 4) | further results
COc1cc2c3c(n(CCCN4CCNCC4)c(=O)c2cc1OC)-c1cc2c(cc1C3=O)OCO2.Cl.Cl [Compound 5p, 6-(3-Piperazinyl-1-propyl)-5,6-dihydro-2,3-dimethoxy-8,9-methylenedioxy-5,11-dioxo-11H-indeno[1,2-c]isoquinoline Dihydrochloride] | 0.015 | 0.575 | 1.2 | < 0.005 | < 0.005 | 0.091 | 4.57 | 0.382 ± 0.119 | 16 | 2 | 18 | – | – | – | – | GI50 [2, 12]: 2.04 µM
COc1cc2c3c(n(CCCN4CCCC(O)C4)c(=O)c2cc1OC)-c1cc2c(cc1C3=O)OCO2.Cl (stereo not shown) [Compound 5s, 6-[3-(3-Hydroxypiperidinyl)-1-propyl]-5,6-dihydro-2,3-dimethoxy-8,9-methylenedioxy-5,11-dioxo-11H-indeno[1,2-c]isoquinoline Hydrochloride] | < 0.005 | < 0.005 | 5.01 | < 0.005 | < 0.005 | 0.126 | 0.977 | 0.243 ± 0.088 | 6 | 0 | 6 | – | – | – | – | GI50 [2, 12]: 5.75 µM
COc1cc2c3c(n(CCCN4CCCNCC4)c(=O)c2cc1OC)-c1cc2c(cc1C3=O)OCO2.Cl.Cl [Compound 5v, 6-(3-Homopiperazinyl-1-propyl)-5,6-dihydro-2,3-dimethoxy-8,9-methylenedioxy-5,11-dioxo-11H-indeno[1,2-c]isoquinoline Dihydrochloride] | 0.081 | 0.214 | 0.457 | 0.145 | < 0.005 | 0.145 | 2.63 | 0.715 ± 0.335 | 12 | 2 | 14 | – | – | – | – | GI50 [2, 12]: 5.01 µM
COc1cc2c3c(n(CCCN4CCN(CCO)CC4)c(=O)c2cc1OC)-c1cc2c(cc1C3=O)OCO2 [Compound 5w, 3-[(1-Hydroxyethyl-piperazine)-1-propyl]-5,6-dihydro-2,3-dimethoxy-8,9-methylenedioxy-5,11-dioxo-11H-indeno[1,2-c]isoquinoline] | 0.275 | 2.34 | 1.23 | 1.44 | 9.77 | > 100 | > 100 | 7.86 ± 0.27 | 8 | 0 | 8 | – | – | – | – | GI50 [2]: 15.1 µM
O=C(O)C(F)(F)F.O=C(O)C(F)(F)F.O=C1c2ccccc2-c2c1c1ccccc1c(=O)n2CCNCCCNCCn1c2c(c3ccccc3c1=O)C(=O)c1ccccc1-2 [Compound 14d, Bis-1,3-{(5,6-dihydro-5,11-diketo-11H-indeno[1,2-c]isoquinoline)-6-ethylamino}propane Bis(trifluoroacetate)] | – | – | – | – | – | – | – | – | – | – | – | 0.122 ± 0.064 | 2 | 4 | 6 | GI50 ([1]; prostate DU-145, concentration corresponding to 50% growth inhibition, read-out: cytotoxicity (GI50 in μM) prostate DU-145): 0.079 µM; GI50 [2, 14]: 0.093 µM; GI50 [3, 15]: < 0.005 µM; GI50 [4, 16]: 0.182 µM; GI50 [5, 17]: 0.155 µM; GI50 [6, 18]: 0.339 µM; GI50 [7, 19]: < 0.005 µM; GI50 [8, 20]: 0.024 µM
O=C(O)C(F)(F)F.O=C(O)C(F)(F)F.O=C1c2ccccc2-c2c1c1ccccc1c(=O)n2CCCNCCCNCCCn1c2c(c3ccccc3c1=O)C(=O)c1ccccc1-2 [Compound 14g, Bis-1,3-{(5,6-dihydro-5,11-diketo-11H-indeno[1,2-c]isoquinoline)-6-propylamino}propane Bis(trifluoroacetate)] | – | – | – | – | – | – | – | – | – | – | – | 0.394 ± 0.33 | 26 | 6 | 32 | GI50 [2, 14]: 0.074 µM; GI50 [3, 15]: < 0.01 µM; GI50 [4, 16]: 0.042 µM; GI50 [5, 17]: 0.011 µM; GI50 [6, 18]: < 0.01 µM; GI50 [7, 19]: < 0.01 µM; GI50 [8, 20]: 0.107 µM
O=C(O)C(F)(F)F.O=C(O)C(F)(F)F.O=C1c2ccccc2-c2c1c1ccccc1c(=O)n2CCCNCCCCNCCCn1c2c(c3ccccc3c1=O)C(=O)c1ccccc1-2 [Compound 14h, Bis-1,4-{(5,6-dihydro-5,11-diketo-11H-indeno[1,2-c]isoquinoline)-6-propylamino}butane Bis(trifluoroacetate)] | 0.234 | < 0.005 | 0.562 | 0.251 | 0.525 | < 0.005 | 0.676 | – | – | – | – | 0.225 ± 0.084 | 12 | 4 | 16 | GI50 [2]: 0.135 µM
O=C(O)C(F)(F)F.O=C(O)C(F)(F)F.O=C(O)C(F)(F)F.O=C1c2ccccc2-c2c1c1ccccc1c(=O)n2CCNCCNCCNCCn1c2c(c3ccccc3c1=O)C(=O)c1ccccc1-2 [Compound 14i, Bis{(5,6-dihydro-5,11-diketo-11H-indeno[1,2-c]isoquinoline)-6-ethylamino-ethyl}amine Tris(trifluoroacetate)] | 0.331 | 0.112 | 0.269 | 0.275 | 0.048 | 0.017 | 1 | – | – | – | – | 0.474 ± 0.143 | 10 | 6 | 16 | GI50 [2]: 1.15 µM
O=C1c2cc3c(cc2-c2c1c1ccc(F)cc1c(=O)n2CCCn1ccnc1)OCO3 [Compound 36] | – | – | – | – | – | – | – | – | – | – | – | – | – | – | – | GI50 ([9]; Homo sapiens, read-out: MGM GI50): 11 nM; IC50 [11]: > 111000 nM
O=C1c2cc3c(cc2-c2c1c1ccc(F)cc1c(=O)n2CCCN1CCOCC1)OCO3 [Compound 37] | – | – | – | – | – | – | – | – | – | – | – | – | – | – | – | IC50 [11]: > 111000 nM
CC(=O)O[C@H]1C(=O)[C@@]2(C)[C@H]([C@H](OC(=O)c3ccccc3)[C@]3(O)C[C@H](OC(=O)[C@H](O)[C@@H](NC(=O)c4ccccc4)c4ccccc4)C(C)=C1C3(C)C)[C@]1(OC(C)=O)CO[C@@H]1C[C@@H]2O [Paclitaxel, paclitaxel, reference compound] | – | – | – | – | – | – | – | – | 24 | 8 | 32 | – | 24 | 8 | 32 | Cell kill ([10]; Table 3): Y; Cell kill ([10]; Table 4): Y
